# Data taken from article PMC5988308, “Rhodanine derivatives as potent anti-HIV and anti-HSV microbicides” (PLoS ONE, 2018).
# Read-outs that look alike come from different tables or passages of the source.
# Key:
# [1] = target: human serum albumin (HSA) (Homo sapiens, UniProt P02768); assay: Albumin binding fluorimetric assay, HSA; settings: fluorescence quenching, 10 μM HSA
# Protocol: The binding of each compounds to HSA (human serum albumin) and BSA (bovine serum albumin) were monitored by fluorescence spectroscopy in order to determine the dissociation constant (Kd). A quantitative analysis of the potential interaction was performed by fluorimetric analysis using 96 multiwell plates: in each well a fixed concentration of HSA or BSA (10μM in phosphate buffer 1 mM), was added with different amounts of tested compound (0.1μM to 500μM by stock solutions in DMSO). […] The obtained fluorescence quenching percentages were plotted against drug concentrations and the relative Kd values were obtained using GraphPad software (version 6.0).
# [2] = Cytotoxicity on TZM-bl cells (XTT test); assay type: cell-based; settings: human, read-out: Citotoxicity (TZM-bl cells) CC50
# Protocol: (§1) The human TZM-bl indicator cell line (obtained from the NIH AIDS reagents program, cat. Nr 8129 (www.aidsreagent.org) and maintained at 37°C and 5% CO2 in Dulbecco’s modified Eagle’s medium (DMEM) medium containing 10% fetal bovine serum, 50 μg/mL penicillin, and 50 μg/mL streptomycin. The HIV-1 laboratory strains NL(AD8) (NIH AIDS reagents program, cat.nr 11346), NL4.3 (NIH AIDS reagents program, cat. Nr. 114) were titrated as previously reported. Briefly, serial 5-fold dilutions of each virus were made in quadruplicate wells in 96-well culture plates, in a total volume of 100 μL of growth medium (DMEM), for a total of 8 dilution steps. Freshly trypsinized cells (20,000 cells in 100 μL of growth medium containing 75 μg/mL DEAE-dextran) were added to each well, and the plates were incubated at 37°C in a humidified 5% CO2-95% air environment. After 48 h of incubation, the medium was removed and viral infection was quantified using a β-galactosidase (CPRG) assay (Roche). Twenty thousand TZM-bl cells/well were seeded in 96-well plates in complete DMEM supplemented with 30 μg/mL DEAE-dextran (Sigma-Aldrich). Three hundred times the 50% tissue culture infective dose (TCID50)/mL of each strain was pretreated for 1 h at 37°C with six serial dilutions ([…] to 3.2 nM) of each compound and then added to the cells, as previously described. Vehicle (0.1% dimethyl sulfoxide [DMSO])-treated cells served as a negative control. […] After 2 days, viral infection was quantified using a CPRG assay (Roche). The inhibitory curves were fitted by nonlinear regression, allowing for the calculation of the 50% inhibitory concentration (IC50) using the Prism software. To evaluate the cell toxicity of the compounds, the metabolic XTT [2,3-bis-(2-methoxy-4-nitro-5-sulfophenyl)-2H-tetrazolium-5-carboxanilide] test (Sigma-Aldrich) was performed according to the manufacturer’s instructions.
# [3] = tested on: HIV-1 AD8 (CCR5-tropic strain); assay: Antiviral activity on TZM-bl cells infected with HIV-1 AD8 (CPRG assay); assay type: cell-based; settings: Human immunodeficiency virus 1, TZM-bl cells
# Protocol: as §1
# [4] = target: bovine serum albumin (BSA) (Bos taurus, UniProt P02769); assay: Albumin binding fluorimetric assay, BSA; settings: fluorescence quenching, 10 μM BSA
# Chain of bovine serum albumin (BSA) (P02769 25-607): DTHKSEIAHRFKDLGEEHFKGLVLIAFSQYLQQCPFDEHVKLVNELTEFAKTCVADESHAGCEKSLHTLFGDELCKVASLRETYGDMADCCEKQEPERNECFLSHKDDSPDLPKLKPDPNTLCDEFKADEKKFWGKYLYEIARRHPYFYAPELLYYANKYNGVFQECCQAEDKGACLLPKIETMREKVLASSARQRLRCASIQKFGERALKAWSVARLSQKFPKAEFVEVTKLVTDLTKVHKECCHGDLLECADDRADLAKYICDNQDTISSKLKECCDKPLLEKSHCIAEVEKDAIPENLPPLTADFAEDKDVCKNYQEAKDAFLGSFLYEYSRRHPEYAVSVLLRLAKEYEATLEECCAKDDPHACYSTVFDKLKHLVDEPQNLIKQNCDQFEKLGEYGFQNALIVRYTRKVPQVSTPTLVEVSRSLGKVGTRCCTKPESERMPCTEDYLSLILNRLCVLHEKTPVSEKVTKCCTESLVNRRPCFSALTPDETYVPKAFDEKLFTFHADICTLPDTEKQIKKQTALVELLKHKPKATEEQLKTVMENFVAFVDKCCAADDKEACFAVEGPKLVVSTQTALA
# Protocol: The binding of each compounds to HSA (human serum albumin) and BSA (bovine serum albumin) were monitored by fluorescence spectroscopy in order to determine the dissociation constant (Kd). A quantitative analysis of the potential interaction was performed by fluorimetric analysis using 96 multiwell plates: in each well a fixed concentration of HSA or BSA (10μM in phosphate buffer 1 mM), was added with different amounts of tested compound (0.1μM to 500μM by stock solutions in DMSO). Plates were gently shacked and after allowing 30 minutes at room temperature for equilibration, after excitation at 295nm, spectra were recorded from 300 to 400 nm with a Perkin Elmer EnVision Multilabel Reader 2014 spectrofluorimeter, spectra were acquired with EnVision Manager ver.1.13 software. The obtained fluorescence quenching percentages were plotted against drug concentrations and the relative Kd values were obtained using GraphPad software (version 6.0).
# [5] = Metabolic stability in human liver microsomes; assay type: in vitro ADME; settings: HLM, 37°C, 1 h; percentage of compound not metabolized
# Protocol: The incubation mixture (total volume of 500 μL) was constituted by the following components: HLM (0.2 mg/mL), a NADPH regenerating system (NADPH 0.2 mM, […] 1 mM, D-glucose-6-phosphate 4 mM, 4 unit/mL glucose-6-phosphate dehydrogenase and MgCl2 48 mM), 50 μM of each compound in DMSO and phosphate buffer (pH 7.4, 25 mM, up to a final volume of 500 μL). The mixture was incubated at 37°C for 1 h. The reaction was cooled down and quenched with acetonitrile (1.0 mL). After centrifugation (4000 rpm, 10 min), the supernatant was taken, dried under nitrogen flow, suspended in 100 μL of methanol and analyzed by UV/LC-MS to determine the percentage of compound that was not metabolized.
# [6] = Vero cell viability (MTS assay); assay type: cell-based; settings: African green monkey
# Protocol: African green monkey fibroblastoid kidney cells (Vero, ATCC CCL-81) were grown as monolayers in Eagle's minimal essential medium (MEM) (Gibco/BRL, Gaithersburg, MD) supplemented with 10% heat inactivated fetal calf serum (FCS) and 1% antibiotic-antimycotic solution (Zell Shield, Minerva Biolabs GmbH, Berlin, Germany).
# Cell viability was measured using the MTS [3-(4,5-dimethylthiazol-2-yl)-5-(3-carboxymethoxyphenyl)-2-(4-sulfophenyl)-2H-tetrazolium] assay. Cell cultures were seeded in 96-well plates were incubated with different concentrations of compounds in triplicate under the same experimental conditions described for the antiviral assays. Cell viability was determined using the CellTiter 96 Proliferation Assay Kit (Promega, Madison, WI, USA) according to the manufacturer's instructions. Absorbances were measured using a Microplate Reader (Model 680, BIORAD) at 490 nm. The effect on cell viability at different concentrations of the compound was expressed as a percentage, by comparing absorbances of treated cells with those of cells incubated with culture medium and equal volumes of vehicle.
# [7] = Aqueous (thermodynamic) solubility; assay type: physicochemical; settings: thermodynamic from solid, water, 20°C, read-out: Water Solub.
# Protocol: Each solid compound (1 mg) was added to 1 mL of water. Each sample was mixed at 20°C, in a shaker water bath for 24 h. The resulting suspension was filtered through a 0.45 μm nylon filter (Acrodisc). The concentration of solubilized compounds weres determined by UV/LC-MS (performed in triplicate) by comparison with the appropriate calibration curve that was obtained from samples of the compound dissolved in methanol at different concentrations.
# [8] = pre-incubation in complete medium containing fetal bovine serum (FBS), read-out: AD8 EC50 a
# [9] = pre-incubation with virus without serum, read-out: AD8 EC50
# [10] = Vero cells, HSV-2 assay conditions, read-out: Citotoxicity (Vero cells) CC50
# Chain of human serum albumin (HSA) (P02768 25-609): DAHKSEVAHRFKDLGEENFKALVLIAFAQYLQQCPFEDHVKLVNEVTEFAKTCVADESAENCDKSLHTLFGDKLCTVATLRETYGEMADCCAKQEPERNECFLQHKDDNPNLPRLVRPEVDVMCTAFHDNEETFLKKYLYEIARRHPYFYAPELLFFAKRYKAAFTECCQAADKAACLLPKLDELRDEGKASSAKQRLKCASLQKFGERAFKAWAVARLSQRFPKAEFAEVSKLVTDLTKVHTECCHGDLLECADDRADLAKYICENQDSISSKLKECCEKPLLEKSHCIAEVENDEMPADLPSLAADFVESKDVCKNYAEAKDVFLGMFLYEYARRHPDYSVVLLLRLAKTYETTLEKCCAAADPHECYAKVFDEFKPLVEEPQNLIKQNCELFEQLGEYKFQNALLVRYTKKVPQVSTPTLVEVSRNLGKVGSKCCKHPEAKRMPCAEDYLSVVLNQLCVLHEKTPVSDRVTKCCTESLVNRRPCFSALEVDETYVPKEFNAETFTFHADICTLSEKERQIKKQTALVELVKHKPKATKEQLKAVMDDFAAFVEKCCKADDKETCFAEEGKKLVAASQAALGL
Structure (SMILES),Kd [1] [µM],CC50 [2] [µM],"EC50 [3, 8] [µM]","EC50 [3, 9] [µM]",Kd [4] [µM],Metabolic Stability [5] [%],"CC50 [6, 10] [µM]",solubility at 24 h [7] [µg/mL],CC50 ([6]; Vero cell CC50 (HSV-2 acyclovir resistant rows)) [µM],"CC50 ([6]; Vero cells, HSV-1 assay conditions, read-out: Vero cell CC50 (HSV-1)) [µM]"
"O=C(O)c1ccc(-c2ccc(/C=C3\SC(=S)N(CCc4ccc(F)cc4)C3=O)o2)cc1O [Compound 9a, (Z)-4-(5-((3-(4-fluorophenethyl)-4-oxo-2-thioxothiazolidin-5-ylidene)methyl)furan-2-yl)-2-hydroxybenzoic acid]",1.51 ± 0.2,2.2,0.116 ± 0.024,0.0075,1.08 ± 0.2,>90,> 300,0.54 ± 0.08,,
"CCc1ccc(CCN2C(=O)/C(=C/c3ccc(-c4ccc(C(=O)O)c(O)c4)o3)SC2=S)cc1 [Compound 9d, (Z)-4-(5-((3-(4-ethylphenethyl)-4-oxo-2-thioxothiazolidin-5-ylidene)methyl)furan-2-yl)-2-hydroxybenzoic acid]",1.09 ± 0.9,12.3,0.186 ± 0.009,0.036 ± 0.003,0.99 ± 0.9,>90,16.9 ± 4.31,0.25 ± 0.09,,
O=C(O)c1ccc(-c2ccc(/C=C3\SC(=S)N(Cc4ccc(F)cc4)C3=O)o2)cc1O [Compound 1],0.63 ± 0.1,> 20,1.395 ± 0.01,0.0323 ± 0.003,0.68 ± 0.1,>90,224 ± 78.5,0.88 ± 0.1,,
"O=C(O)c1ccc(-c2ccc(/C=C3\SC(=S)N(CCCc4ccccc4)C3=O)o2)cc1O [Compound 9c, (Z)-2-hydroxy-4-(5-((4-oxo-3-(3-phenylpropyl)-2-thioxothiazolidin-5-ylidene)methyl)furan-2-yl)benzoic acid]",1.19 ± 0.1,> 20,0.378 ± 0.015,0.0275 ± 0.004,1.05 ± 0.1,>90,205 ± 30.1,0.3 ± 0.07,,
"O=C(O)c1ccc(-c2ccc(/C=C3\SC(=S)N(Cc4ccc(Cl)c(F)c4)C3=O)o2)cc1O [Compound 9f, (Z)-4-(5-((3-(4-chloro-3-fluorobenzyl)-4-oxo-2-thioxothiazolidin-5-ylidene)methyl)furan-2-yl)-2-hydroxybenzoic acid]",2.23 ± 1.2,> 20,0.56 ± 0.01,0.02 ± 0.004,1.09 ± 0.9,>90,7.87 ± 2.98,0.73 ± 0.14,,
"Cc1ccc(CCN2C(=O)/C(=C/c3ccc(-c4ccc(C(=O)O)c(O)c4)o3)SC2=S)cc1 [Compound 9b, (Z)-2-hydroxy-4-(5-((3-(4-methylphenethyl)-4-oxo-2-thioxothiazolidin-5-ylidene)methyl)furan-2-yl)benzoic acid]",1.57 ± 0.2,> 20,0.404 ± 0.02,0.0467 ± 0.009,1.55 ± 0.3,>90,,0.1 ± 0.08,,
O=C(O)c1ccc(-c2ccc(/C=C3\SC(=S)N(Cc4ccc(Cl)cc4)C3=O)o2)cc1O [Compound 2],0.96 ± 0.1,> 20,0.65,0.0069,0.63 ± 0.1,>90,112 ± 11.6,0.52 ± 0.13,112 ± 11.6,98 ± 23.1
"O=C(O)c1ccc(-c2ccc(/C=C3\SC(=S)N(c4ccc(F)c(Cl)c4)C3=O)o2)cc1O [Compound 9e, (Z)-4-(5-((3-(3-chloro-4-fluorophenyl)-4-oxo-2-thioxothiazolidin-5-ylidene)methyl)furan-2-yl)-2-hydroxybenzoic acid]",2.19 ± 1,> 20,0.4 ± 0.014,0.026 ± 0.006,1.07 ± 0.9,>90,> 100,0.72 ± 0.12,,
